According to patent publication US20240327929A1, “DOSAGE REGIMEN FOR ADMINISTRATION OF BELZUTIFAN” (MERCK SHARP & DOHME LLC, priority 2021, published 2024):
Values joined by “and” are separate entries in the source; they are usually repeats but may differ in a detail not shown here. Equal values may be shown once.

Columns and labels:
[1] = Effect of dose and formulation on MK-6482 exposure (pooled Phase 1 mixed effects model); details: human, in vivo
Description: There are many important differences in patient composition between the trials. To note, MK-6482-001 was a first-in-human dose finding trial studying patients with advanced solid tumors or renal cell carcinoma (RCC), while MK-6482-002,-006, and-007 were PK trials conducted with (predominantly female) healthy volunteers. In addition, study-007 enrolled Japanese subjects based on specific CYP2C19 phenotypes; all other studies enrolled subjects without genotype-based selection criteria. Finally, the protocols differed in terms of belzutifan formulation given to trial subjects: subjects in protocols 001 and 002 were given one formulation of belzutifan, study 006 compared that formulation and a new formulations, enrolling all subjects to receive both the formulations, and study 007 patients only received the new formulation of MK-6482.

[2] = system: UGT2B17 and CYP2C19; experiment: Pharmacogenetic analysis of pooled Phase 1 PK: combined UGT2B17 and CYP2C19 phenotype vs double EM; details: model-based estimates
Description: Linear mixed effect model analyses were performed on the natural log transformed PK parameters from the four pooled Phase 1 studies, separately for AUC and Cmax. The model contained fixed effects of natural log transformed dose, drug formulation (old or new), enzyme phenotype determined from genotype, relevant additional covariates, and a random subject effect. UGT2B17 phenotype was considered as a categorical variable with dummy encoding for each phenotype (intermediate metabolizers (IM), poor metabolizers (PM)) that differed from the extensive metabolizer (EM) category). […]
To understand the differences in exposure between different genetic phenotype categories, least square means were computed for each UGT2B17 phenotype, each CYP2C19 phenotype, and for each combination UGT2B17/CYP2C19 phenotype. […] Similar analyses were also conducted separately within each UGT2B17 phenotype group to quantify the difference in exposure between CYP2C19 phenotype groups separately for each UGT2B17 phenotype. […]
The Phase 1 PK endpoints analyzed were AUCo->following single dose (SD) administration and steady state AUCo-, following multiple dose (MD) administration pooled, as well as Cmax following SD administration and steady state Cmax following MD administration pooled. […]

[3] = Effect of body weight on MK-6482 exposure (pooled Phase 1 mixed effects model); details: for % Change in AUC (h*ng/mL) per 10 kg increase in body weight / % Change in Cmax (ng/mL) per 10 kg increase in body weight: model accounting for dose, formulation
Description: Linear mixed effect model analyses were performed on the natural log transformed PK parameters from the four pooled Phase 1 studies, separately for AUC and Cmax. The model contained fixed effects of natural log transformed dose, drug formulation (old or new), enzyme phenotype determined from genotype, relevant additional covariates, and a random subject effect. UGT2B17 phenotype was considered as a categorical variable with dummy encoding for each phenotype (intermediate metabolizers (IM), poor metabolizers (PM)) that differed from the extensive metabolizer (EM) category). Similarly, CYP2C19 metabolizer status was considered as a categorical variable with dummy encoding for each phenotype (PM, IM, rapid metabolizers (RM) and ultra-rapid metabolizers (UM)) that differed from the EM category. Relevant covariates were selected under the null hypothesis from the following: disease (healthy vs patient), body weight (in kg), age, gender, and dose-by-body weight and dose-by-formulation interactions. Final models used to generate tables in this Example include log (dose), formulation (old/new), body weight (kg), and enzyme phenotype as variables.
Between- and within-subject random effects were modeled via terms Si and ϵij, respectively, and assumed to be normally distributed.
Presence of an interactive effect was tested using an F-test with Kenward-Roger denominator degrees of freedom for the fixed effects. As a descriptive measure, the effect of body weight on exposure was also calculated separately within each UGT2B17 group using a mixed effects model accounting for log(dose) and formulation only. […] For the overall estimate, model (1) was used.

[4] = biological target: T1, UGT2B17 (Homo sapiens, UniProt O75795)
T1 sequence (O75795 24-530): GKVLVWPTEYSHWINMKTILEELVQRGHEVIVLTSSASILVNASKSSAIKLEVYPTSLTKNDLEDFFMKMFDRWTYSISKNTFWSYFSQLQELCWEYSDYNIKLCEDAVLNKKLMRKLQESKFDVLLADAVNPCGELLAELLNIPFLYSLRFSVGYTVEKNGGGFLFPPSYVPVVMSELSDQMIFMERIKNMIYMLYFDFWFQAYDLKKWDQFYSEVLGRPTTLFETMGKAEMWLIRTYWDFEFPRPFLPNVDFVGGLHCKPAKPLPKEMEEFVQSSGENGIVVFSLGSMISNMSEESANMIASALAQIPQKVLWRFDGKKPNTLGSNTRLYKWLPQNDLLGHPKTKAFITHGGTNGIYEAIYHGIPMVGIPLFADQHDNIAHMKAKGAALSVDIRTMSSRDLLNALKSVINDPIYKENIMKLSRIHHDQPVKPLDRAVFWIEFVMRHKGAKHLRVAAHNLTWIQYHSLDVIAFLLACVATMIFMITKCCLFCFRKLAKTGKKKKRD

[5] = cited from earlier work
[6] = dose-escalation cohort, doses up to 160 mg once daily

For `CS(=O)(=O)c1ccc(Oc2cc(F)cc(C#N)c2)c2c1[C@H](O)[C@H](F)[C@@H]2F` [MK-6482, 3-[(1S,2S, 3R)-2,3-Difluoro-1-hydroxy-7-methylsulfonyl-indan-4-yl]oxy-5-fluoro-benzonitrile], the “effect of dose on Cmax, estimated coefficient of log(dose)” value [1] was 0.90, the “exposure of PMs of both enzymes relative to EMs of both enzymes” value [2] was “over four-fold” and the “expected difference in exposure between extremes of body weight” value ([3]; 41 kg vs 164 kg, independent of enzyme phenotype) was roughly 2.9 fold. The “% Change in AUC (h*ng/mL) per 10 kg increase in body weight” value ([3]; UGT2B17 EM) was −10.9%, the “% Change in Cmax (ng/mL) per 10 kg increase in body weight” value ([3]; UGT2B17 EM) was −6.4% and the “% Change in AUC (h*ng/mL) per 10 kg increase in body weight” value ([3]; UGT2B17 IM) was −8.3%. For the same compound, the “% Change in Cmax (ng/mL) per 10 kg increase in body weight” value ([3]; UGT2B17 IM) was −7.8%, the “% Change in AUC (h*ng/mL) per 10 kg increase in body weight” value ([3]; UGT2B17 PM) was −15.5% and the “% Change in Cmax (ng/mL) per 10 kg increase in body weight” value ([3]; UGT2B17 PM) was −4.5%. The “decrease in AUC for every 10 kg increase in body weight” value ([3]; overall, all subjects) was 9.2 (6.5, 12.0) % and 9.2%, the “decrease in Cmax for every 10 kg increase in body weight” value ([3]; overall, all subjects) was 7.0 (4.5, 9.5) % and the “metabolism (primary pathway and enzyme)” value [4] was “metabolized primarily by glucuronidation, catalyzed predominantly by UDP Glucuronosyltransferase Family 2 Member B17 (UGT2B17)”. The dose-limiting toxicities [5, 6] was “no dose-limiting toxicities occurred”, the maximum tolerated dose [5, 6] was “not reached” and the “most common adverse events” value ([5]; heavily pre-treated patients with ccRCC) was “anemia and hypoxia”.
